# Experimental data: US8299126B2, “Treatment of canine hemangiosarcoma with a histone deacetylase inhibitor” (priority 2003, dated 2012)
# Where “and” joins values, the source holds several entries; their conditions need not be identical. Equal values may be shown once. Read-outs that look alike come from different tables or passages of the source.
# Key:
# hemangiosarcoma = conditions: canines, surgery and chemotherapy with doxorubicin; cited from earlier work
# [1] = tested on: human prostate cancer cells; conditions: mouse xenograft model (Butler et al. 2000); cited from earlier work
# [2] = tested on: NMU-induced rat mammary tumors; conditions: cited from earlier work
# canine hemangiosarcoma = type: in vivo
# Protocol: The present invention is based in part on a case study of a dog having hemangiosarcoma. In the case study, SAHA was administered to the dog at a dose of 100 mg per day (about 3.3 mg/kg/day) post-splenectomy, mixed as a dry powder in dog food. The dog remains in good health more than 400 days post-splenectomy.
# A 75 pound (33.75 kg), 12 year old female Rhodesian Ridgeback-Pit Bull mix was diagnosed with hemangiosarcoma. Symptoms included unexplained weakness, pale color to the mucous membranes of the mouth, lack of appetite and excessive consumption of water. The dog was brought to an emergency veterinary center, where X-ray and sonogram examination indicated a multi-lobulated mass on the spleen. An emergency splenectomy was performed, during which approximately 1 liter of blood was aspirated from the body cavity. There was no gross evidence of metastases in the liver or heart and a liver biopsy was taken. […] Nuclei were mildly pleomorphic, oval and had prominent nucleoli. Mitoses were occasionally present. Extramedullary hematopoiesis was present throughout and large areas of hemorrhage and necrosis was typical. The tumor was multifocal throughout the spleen. Pathology results were reported as hemangiosarcoma, grade 1, spleen, with a normal liver.
# Starting approximately 2 weeks after splenectomy, when signs of weakness had re-appeared, SAHA was administered in the diet at 100 mg/day, 7 days/week. The dose was based on a rough extrapolation from rat studies. The diet consisted of a cup of standard pelleted dog food (Solid Gold, Hund-n-Flocken), a teaspoonful of brewers yeast (Foster and Smith, Rhinelander, Wis.), 1-2 ml of an essential fatty acid mixture containing n-6 and n-3 PUFA (Foster and Smith), and 2 tablespoonfuls of wet dog food (Pedigree®, Kal Kan Foods, Inc., CA), in which the SAHA was administered.
# Within 24 hrs, there was an immediate, observable decrease in weakness and lethargy. […] For three months from diagnosis, the dog went through periods of high alertness and activity punctuated by brief periods of mild lethargy.
# (§1) A little over 7 months post-splenectomy, the dog was examined for possible signs of metastasis by chest X-Ray, abdominal ultrasound, echogram, urinalysis and CBC.
# [3] = Follow-up blood chemistry and hematology of the SAHA-treated dog; type: in vivo, canine
# Description: Approximately one month post-splenectomy, the dog was examined and found to be in good condition. […] The platelet count was above the normal range 550, (reference range, 100-450).
# as §1
# [4] = Analyzed urine output: removal, half-life and metabolism of SAHA; type: in vivo
# Description: (§2) Therefore, it may be possible with further studies to better understand the effect of SAHA on the vascularization of tumors, not only in canines, but perhaps in humans as well.
# [5] = Stability at room temperature and solubility of the active compound; type: physicochemical
# Description: Suitable preparations of such compositions include emulsions or solid forms suitable for emulsion. As used herein “solid forms” include powders and finely divided particles. Due to the insoluble nature of the active compound, e.g., SAHA, the preferred preparation is in the form of a powder.
# as §2
# General toxicity of SAHA = assay: General toxicity of SAHA
# Description: The daily dosage of the compound of the present invention may vary according to a variety of factors such as underlying disease states, the individual's type, species, and medical condition, weight, sex, age, the severity of the condition to be treated; the route of administration; and the particular compound thereof employed. […] A physician or veterinarian of ordinary skill can readily determine and prescribe the effective amount of the drug required to prevent, counter or arrest the progress of the condition. Optimal precision in achieving concentrations of drug within the range that yields efficacy without toxicity requires a regimen based on the kinetics of the drug's availability to target sites. This involves consideration of the absorption, distribution, metabolism, and excretion of a drug, which are readily quantified.
# [6] = added to the diet, chemopreventive (Cohen et al., 1999)
compound,measurement,setting,value
COc1cccc2c1C(=O)c1c(O)c3c(c(O)c1C2=O)C[C@@](O)(C(=O)CO)C[C@@H]3O[C@H]1C[C@H](N)[C@H](O)[C@H](C)O1 [doxorubicin],prognosis once diagnosed,hemangiosarcoma,less than six
"O=C(CCCCCCC(=O)Nc1ccccc1)NO [SAHA, suberoylanilide hydroxamic acid]",tumor growth,[1],inhibited tumor growth
same,"effect on time of appearance, incidence, multiplicity and total number of NMU-induced rat mammary tumors",[2]; [6],significantly inhibit
same,side effects,[2]; [6],no deleterious side effects
same,effect on established rat mammary tumors,"[2]; administered in the diet, chemotherapeutic (Cohen et al., 2002)","decrease the size, slow the growth rate and, in some cases, induce the complete regression"
same,side effects,"[2]; administered in the diet, established tumors (Cohen et al., 2002)",no toxic side effects
same,signs of decreased energy after dose increase,canine hemangiosarcoma; SAHA increased to 110 mg/day,no signs of decreased energy
same,"signs of metastasis by chest X-Ray, abdominal ultrasound, echogram, urinalysis and CBC",canine hemangiosarcoma; a little over 7 months post-splenectomy,no evidence of dissemination
same,time to observable decrease in weakness and lethargy,"canine hemangiosarcoma; after start of SAHA 100 mg/day in the diet, about 2 weeks after splenectomy",≤ 24 h
same,time the dog remains in good health post-splenectomy,"canine hemangiosarcoma; one dog with hemangiosarcoma, SAHA 100 mg per day (about 3.3 mg/kg/day), later 110 mg/day, in dog food",more than 400 days and 400 days
same,duration of suppression of metastatic dissemination of neoplastic endothelial cells post-splenectomy,"canine hemangiosarcoma; one dog, SAHA daily in diet",210 days
same,bands neutrophils,"[3]; a little over 7 months post-splenectomy, range 0-3",6
same,RBC,"[3]; a little over 7 months post-splenectomy, range 5.5-8.5",4.98 10^6/µL
same,segmented neutrophil,"[3]; a little over 7 months post-splenectomy, range 32-36",36.5
same,Hematocrit,"[3]; a little over 7 months post-splenectomy, range 37-55",35.3%
same,alkaline phosphatase,"[3]; a little over 7 months post-splenectomy, reference range 10-150",3 U/L
same,RBC,"[3]; approximately one month post-splenectomy, range 5-8",4.96 10^6/µL
same,hemoglobin,"[3]; approximately one month post-splenectomy, range 14-21",13.2 g/dL
same,LDH,"[3]; approximately one month post-splenectomy, reference range 50-550",49 U/L
same,platelet count,"[3]; approximately one month post-splenectomy, reference range 100-450",550 10^3/µL
same,half-life,[4]; from analyzed urine output,approximately three to four
same,removal from the body,[4]; from analyzed urine output,rapidly removed from the body
same,metabolism by the animal,[4]; in vivo,not readily metabolized
same,solubility,[5],insoluble
same,stability at room temperature,[5]; room temperature,stable at room temperature
same,toxicity,General toxicity of SAHA,almost no measurable toxicity other than possible fatigue at high doses
